Values after ≈ are worked out from the molar mass of the structure shown. Results filed as inconclusive are left out. Active and inactive are the calls of the source.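 The calls were made as follows: active = dose-dependent viability drop with mean lowest dose clearly under solvent controls below the top tested dose; inconclusive = self-fluorescent without titration, or replicates split around top dose; inactive = no such drop up to the top dose.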
System: NIH 3T3 viability, Alamar Blue fluorescence, 3 days
Assay: mammalian fibroblast cytotoxicity – cell-based, Alamar Blue fluorescence, MIC, cytotoxicity control for polyadenylation inhibitor project, dose response (AID 2691)

**Q.** How did the MIC turn out when `O=C(Oc1c(-c2ccccc2)c(=O)n2c3c(cccc13)CC2)c1cccc([N+](=O)[O-])c1` was run?
**A.** Its MIC is > 25 µM (inactive).

**Q.** `COc1cc(/C=C2\SC(=S)N(NC(=O)c3ccncc3)C2=O)ccc1O` was tested. Which MIC did it give?
**A.** The MIC was > 25 µM (inactive).

**Q.** With `O=C(COC(=O)Cc1ccc(S(=O)(=O)N2CCOCC2)s1)NCc1ccc(Cl)cc1` as the compound, how does the MIC read?
**A.** The MIC was > 25 µM (inactive).

**Q.** How did the MIC turn out when `N#CC1(C#N)C2=C(CCCC2)NC(c2ccccc2)C1(C#N)C#N` (stereo not given) was run?
**A.** The MIC was > 25 µM (inactive).

**Q.** For `CCOc1cc(/C=C2\N=C(SC(C)C(N)=O)N(c3ccc(OC(F)F)cc3)C2=O)ccc1O` (stereo not given), which MIC is on record?
**A.** Its MIC is > 25 µM (inactive).

**Q.** How did the MIC turn out when `COc1cc(/C=C2\SC(=S)N(NC(=O)c3cccnc3)C2=O)ccc1O` was run?
**A.** The MIC was > 25 µM (inactive).

**Q.** With `Nc1ncnc2c1ncn2C1OC(CO)CC1O` (stereo not given) as the compound, how does the MIC read?
**A.** The MIC was > 25 µM (inactive).

**Q.** How did the MIC turn out when `N#C/C(=C/c1ccc([N+](=O)[O-])o1)c1nc2ccccc2[nH]1` was run?
**A.** The MIC was 1.6 µM (≈ 0.448 µg/mL).

**Q.** For `Cc1ccc(C(=O)c2no[n+]([O-])c2C(=O)c2ccc(C)cc2)cc1`, which MIC is on record?
**A.** Its MIC is 1.6 µM (≈ 0.516 µg/mL).

**Q.** `Cc1ccc(Nc2c(-c3ccc(C)o3)nc3ncccn23)cc1` was tested. Which MIC did it give?
**A.** Its MIC is > 25 µM (inactive).

**Q.** With `Cc1ccc2nc(/C(C#N)=C/c3ccc([N+](=O)[O-])o3)[nH]c2c1` as the compound, how does the MIC read?
**A.** Its MIC is 0.8 µM (≈ 0.235 µg/mL).

**Q.** `CCN1/C(=C\C=C\c2sc3ccccc3[n+]2CC)Sc2ccccc21` was tested. Which MIC did it give?
**A.** The MIC was > 25 µM (inactive).

**Q.** Which MIC does the source give for `CC(=O)c1ccc(Sc2ccccc2)c([N+](=O)[O-])c1` here?
**A.** Its MIC is > 25 µM (inactive).

**Q.** How did the MIC turn out when `Cc1ccc(-c2nn3c(C)nnc3s2)cc1NC(=O)CSc1ccc(Cl)cc1` was run?
**A.** The MIC was > 25 µM (inactive).

**Q.** With `COc1cc(/C=C2/CC/C(=C/c3ccc(O)c(OC)c3)C2=O)ccc1O` as the compound, how does the MIC read?
**A.** Its MIC is > 25 µM (inactive).

From PubChem BioAssay AID2691 (Broad Institute, 2010)
